Assay results: patent US11073509B2, “Assays and methods for determining the responsiveness of an individual subject to a therapeutic agent” (Celcuity Inc., priority 2013, dated 2021)
Like-named read-outs stand apart in the source and are kept apart here.

Experiments:
[1] = system: Patient C2 colon cancer cells; assay: CELx Combination test, impedance biosensor CReMS; assay type: cell-based, human; conditions: Patient C2 cells (printed Patient 2), single drug
Protocol: Cells: Colon cancer cells from Patients C1 and C2 were utilized and handled in the same manner as described in Example 1.
Procedure: Between 6,000-12,000 cells in each well were seeded into the impedance microplate containing 120 uL settling media with serum. The solution was replaced with media containing no serum to synchronize the cells with respect to physiologic state. […] The CReMS recording of physiologic change was maintained continuously from when the cells were first seeded on the microplate through complete cellular response, which was between 48-72 hours. The test was performed at 37° C., 5% CO2 and at 75% relative humidity.

[2] = system: Patient B4 cells (HER2 overexpressing breast cancer); assay: CELx Pathway Shutdown test, impedance biosensor CReMS, EGF stimulation; assay type: cell-based, human
Description: (§1) CReM and microplate: A 4″×6″, 96-well impedance microplate was placed into a Roche Applied Science (Indianapolis, Ind.) xCELLigence SP impedance biosensor designed to maintain constant voltage while measuring simultaneously the impedance of every well. The change in impedance for a particular well is proportional to the number of cells and type of attachment the cells have with the impedance microplate. Changes in impedance indicate a response to perturbation of these small cell populations.
(§2) Cells: Cells from Patient B1 and B4 were utilized. […] Prior to addition to the impedance microplate, the cells were removed from their growth container with versene, counted, and re-suspended in media without serum or other growth factors.
(§3) Buffers and reagents: Standard media, serum, antibiotics (e.g. penicillin, streptomycin), and other buffers were purchased and used as delivered from ATCC (Manassas, Va., USA) or Life Technologies (Grand Island, N.Y.). Additional growth factor (mature human EGF ca6KDa) was purchased from R&D Systems (Minneapolis, Minn.) and prepared in buffered cell media without growth factors or serum.
(§4) Procedure: Between 6,000-12,000 cells in each well were seeded onto the impedance microplate containing 120 uL standard media with serum. The solution was replaced with media containing no serum to synchronize the cells with respect to physiologic state and pathway stimulation. Twenty microliters of drugs were added to the no-serum media two hours in advance of pathway stimulation.

[3] = system: Patient B1 cells (HER2 overexpressing breast cancer); assay: as above; assay type: cell-based, human
Description: as §1, §2, §3, §4

[4] = cited from earlier work
[5] = system: Patient B1 breast cancer cells; assay: CELx Anti-Proliferative test, impedance biosensor CReMS; assay type: cell-based, human
Protocol: (§5) The physiologic change of the B1 and B2 cells during the test was measured with an impedance biosensor CReMS and the output from the CReMS is recorded in FIGS. 2A and 2B. The comparison of the CELx test results and the third party clinical reference is recorded in FIG. 2C.
(§6) CReMS, microplate, reagents, and buffers: The CReMS, microplate, reagents, and buffers used in Example 1 are the same as those employed in Example 2, except for the therapeutic agent tested. […] Paclitaxel was purchased from Selleck Chemicals (TX, USA).
(§7) Cells: Breast Cancer cells from Patients B1 and B2 were utilized and handled in the same manner as described in Example 1.
(§8) Procedure: Between 6,000-12,000 cells in each well were seeded onto the impedance microplate containing 120 uL settling media with serum. […] The CReMS recording of physiologic change was maintained continuously from when the cells were first seeded on the microplate through complete cellular response, which was between 48-72 hours. The test was performed at 37° C., 5% CO2 and at 75% relative humidity.

[6] = system: Patient B2 breast cancer cells; assay: as above; assay type: cell-based, human
Protocol: as §5, §6, §7, §8

[7] = system: patient breast cancer cell sample; assay: CELx Pathway Shutdown single drug test (Example 4), impedance biosensor CReMS; assay type: cell-based, human; conditions: one patient breast cancer cell sample expected to be a responder
Protocol: The physiologic change of the cells and drugs tested was measured with an impedance biosensor CReMS and the summary output from the CReMS is recorded in FIG. 4.
Cells: Cells from Patients B1, B2, B3, B4, B5, B6, B7, C1, C2, L1, and L2 were utilized and handled in the same manner as described in Example 1.
In those experiments involving a combination of drugs, the procedures described in Example 3 were utilized. The list of patient cells and the drug tested with the cells is characterized in FIG. 4.

With `CCc1c2c(nc3ccc(OC(=O)N4CCC(N5CCCCC5)CC4)cc13)-c1cc3c(c(=O)n1C2)COC(=O)[C@]3(O)CC` [irinotecan, Irinotecan] the “responsiveness to the individual drug” value [1] was “responsive”.

For `CS(=O)(=O)CCNCc1ccc(-c2ccc3ncnc(Nc4ccc(OCc5cccc(F)c5)c(Cl)c4)c3c2)o1` [lapatinib, Lapatinib], the “CELx test prediction of patient response” value [2] was “would respond”, the “CELx test prediction of patient response” value ([3]; Patient B1) was “will respond” and the “change (decrease) of cell index of test cells after drug” value ([3]; Patient B1 cells, pathway stimulated with receptor ligand (EGF), vs stimulated cells without drug) was “over 50%”. The “patient responsiveness recorded by clinical reference standard” value ([4]; Patient B1) was “responsive” and the “patient responsiveness recorded by clinical reference standard” value ([4]; Patient B4) was “responsive”.

In the case of `CC(=O)O[C@H]1C(=O)[C@@]2(C)[C@H]([C@H](OC(=O)c3ccccc3)[C@]3(O)C[C@H](OC(=O)[C@H](O)[C@@H](NC(=O)c4ccccc4)c4ccccc4)C(C)=C1C3(C)C)[C@]1(OC(C)=O)CO[C@@H]1C[C@@H]2O` [paclitaxel, Paclitaxel], the “CELx test prediction of patient response” value ([5]; Patient B1) was “will respond”, the “responsiveness of test cells (decrease in CReM output compared to control cells)” value ([5]; Patient B1 cells, continuous recording 48-72 hours) was “immediate and continuous responsiveness” and the “CELx test prediction of patient response” value ([6]; Patient B2) was “will respond”. The “time after which the CReM output reverses (test cells begin proliferating, no longer responsive)” value ([6]; Patient B2 cells) was “roughly 24 hours” and the “responsiveness of test cells (decrease in CReM output compared to control cells)” value ([6]; Patient B2 cells, continuous recording 48-72 hours) was “initial responsiveness”.

With `COc1cc2ncnc(Nc3ccc(F)c(Cl)c3)c2cc1OCCCN1CCOCC1` [gefitinib] the “response in the CReMS testing” value [7] was “did not show a response”.
